Results published in patent US20150017667A1, “MEANS AND METHODS FOR ASSESSING LIVER DISORDERS” (BASF SE, priority 2012, published 2015).
Marks after values point to notes of the source that are not given here.

System: male rats
Assay: 28-day repeated dose oral toxicity study (OECD 407) with GC-MS/LC-MS plasma metabolite profiling, male rats
Assay type: in vivo, rat
Conditions: plasma
Text: Drinking water was also offered ad libitum.
The samples were centrifuged for generation of plasma.

CC(C)(Oc1ccc(CCNC(=O)c2ccc(Cl)cc2)cc1)C(=O)O [Bezafibrate]
3-O-Methylsphingosine (d18:1), ratio versus control (day 7): 0.48* | 5-O-Methylsphingosine (d18:1), ratio versus control (day 7): 0.4* | 14-Methylhexadecanoic acid, ratio versus control (day 7): 0.93 | 16-Methylheptadecanoic acid, ratio versus control (day 7): 0.29* | 17-Methyloctadecanoic acid, ratio versus control (day 7): 0.24* | Arachidonic acid (C20:cis[5,8,11,14]4), ratio versus control (day 7): 0.26* | Arginine, ratio versus control (day 7): 0.65* | Ascorbic acid, ratio versus control (day 7): 1.54* | Behenic acid (C22:0), ratio versus control (day 7): 0.44* | Campesterol, ratio versus control (day 7): 0.24* | Cholesterol, ratio versus control (day 7): 0.37* | Choline plasmalogen (C18,C20:4), ratio versus control (day 7): 0.47* | Choline plasmalogen No 01, ratio versus control (day 7): 0.87* | Choline plasmalogen No 02, ratio versus control (day 7): 0.46* | Choline plasmalogen No 03, ratio versus control (day 7): 0.49* | Coenzyme Q10, ratio versus control (day 7): 0.46* | Cytosine, ratio versus control (day 7): 0.89* | Docosapentaenoic acid (C22:cis[7,10,13,16,19]5), ratio versus control (day 7): 0.43* | Eicosanoic acid (C20:0), ratio versus control (day 7): 0.51* | Glucose, ratio versus control (day 7): 1.54* | Glycine, ratio versus control (day 7): 1.79* | Heptadecanoic acid (C17:0), ratio versus control (day 7): 0.69* | Isopalmitic acid (C16:0), ratio versus control (day 7): 0.53* | Kynurenic acid, ratio versus control (day 7): 1.89* | Lignoceric acid (C24:0), ratio versus control (day 7): 0.54* | Lysophosphatidylcholine (C17:0), ratio versus control (day 7): 0.51* | Lysophosphatidylcholine (C18:0), ratio versus control (day 7): 0.79* | Lysophosphatidylcholine (C18:2), ratio versus control (day 7): 1.4* | Lysophosphatidylethanolamine (C22:0), ratio versus control (day 7): 0.27* | Lysophosphatidylethanolamine (C22:5), ratio versus control (day 7): 1.59* | Mannose, ratio versus control (day 7): 1.32* | Metanephrine, ratio versus control (day 7): 0.5 | Nervonic acid (C24:cis[15]1), ratio versus control (day 7): 0.4* | Normetanephrine, ratio versus control (day 7): 0.6* | Pantothenic acid, ratio versus control (day 7): 2.36* | Phosphatidylcholine (C18:0,C20:3), ratio versus control (day 7): 0.48* | Phosphatidylcholine (C18:0,C20:4), ratio versus control (day 7): 0.78* | Phosphatidylcholine (C18:2,C20:4), ratio versus control (day 7): 0.65* | Phosphatidylcholine No 02, ratio versus control (day 7): 0.35* | Phosphatidylcholine No 04, ratio versus control (day 7): 0.23* | Sphingomyelin (d18:1,C16:0), ratio versus control (day 7): 0.88* | Sphingomyelin (d18:2,C16:0), ratio versus control (day 7): 0.72* | Stearic acid (C18:0), ratio versus control (day 7): 0.42* | Tricosanoic acid (C23:0), ratio versus control (day 7): 0.5* | beta-Sitosterol, ratio versus control (day 7): 0.24* | dihomo-gamma-Linolenic acid (C20:cis[8,11,14]3), ratio versus control (day 7): 3.63* | erythro-Sphingosine, ratio versus control (day 7): 0.49* | myo-Inositol-2-phosphate, lipid fraction, ratio versus control (day 7): 0.28* | threo-Sphingosine, ratio versus control (day 7): 0.56* | trans-4-Hydroxyproline, ratio versus control (day 7): 0.71* | Lysophosphatidylcholine (C18:1), ratio versus control (day 7 (Table 3a)): 1.44* | Phosphatidylcholine (C16:0,C20:5), ratio versus control (day 7 (Table 3a)): 1.4* | Docosahexaenoic acid (C22:cis[4,7,10,13,16,19]6), ratio versus control (day 7 (Table 3b)): 0.25* | Phosphatidylcholine (C18:0,C22:6), ratio versus control (day 7 (Table 3b)): 0.36* | alpha-Tocopherol, ratio versus control (day 7 (Table 3b)): 0.75* | 3-O-Methylsphingosine (d18:1), ratio versus control (day 14): 0.44* | 5-O-Methylsphingosine (d18:1), ratio versus control (day 14): 0.41* | 14-Methylhexadecanoic acid, ratio versus control (day 14): 0.89* | 16-Methylheptadecanoic acid, ratio versus control (day 14): 0.25* | 17-Methyloctadecanoic acid, ratio versus control (day 14): 0.24* | Arachidonic acid (C20:cis[5,8,11,14]4), ratio versus control (day 14): 0.31* | Arginine, ratio versus control (day 14): 0.59* | Ascorbic acid, ratio versus control (day 14): 1.32* | Behenic acid (C22:0), ratio versus control (day 14): 0.58* | Campesterol, ratio versus control (day 14): 0.31* | Cholesterol, ratio versus control (day 14): 0.48* | Choline plasmalogen (C18,C20:4), ratio versus control (day 14): 0.5* | Choline plasmalogen No 01, ratio versus control (day 14): 0.82* | Choline plasmalogen No 02, ratio versus control (day 14): 0.52* | Choline plasmalogen No 03, ratio versus control (day 14): 0.63* | Coenzyme Q10, ratio versus control (day 14): 0.58* | Cytosine, ratio versus control (day 14): 0.84 | Docosapentaenoic acid (C22:cis[7,10,13,16,19]5), ratio versus control (day 14): 0.62* | Eicosanoic acid (C20:0), ratio versus control (day 14): 0.67* | Glucose, ratio versus control (day 14): 1.29* | Glycine, ratio versus control (day 14): 1.58* | Heptadecanoic acid (C17:0), ratio versus control (day 14): 0.83* | Isopalmitic acid (C16:0), ratio versus control (day 14): 0.53* | Kynurenic acid, ratio versus control (day 14): 5.15* | Lignoceric acid (C24:0), ratio versus control (day 14): 0.44* | Lysophosphatidylcholine (C17:0), ratio versus control (day 14): 0.51* | Lysophosphatidylcholine (C18:0), ratio versus control (day 14): 0.85* | Lysophosphatidylcholine (C18:2), ratio versus control (day 14): 1.68* | Lysophosphatidylethanolamine (C22:0), ratio versus control (day 14): 0.32* | Lysophosphatidylethanolamine (C22:5), ratio versus control (day 14): 1.9* | Mannose, ratio versus control (day 14): 1.34* | Metanephrine, ratio versus control (day 14): 0.44* | Nervonic acid (C24:cis[15]1), ratio versus control (day 14): 0.44* | Normetanephrine, ratio versus control (day 14): 0.5* | Pantothenic acid, ratio versus control (day 14): 2.3* | Phosphatidylcholine (C18:0,C20:3), ratio versus control (day 14): 0.56* | Phosphatidylcholine (C18:0,C20:4), ratio versus control (day 14): 0.78 | Phosphatidylcholine (C18:2,C20:4), ratio versus control (day 14): 0.66* | Phosphatidylcholine No 02, ratio versus control (day 14): 0.37* | Phosphatidylcholine No 04, ratio versus control (day 14): 0.25* | Sphingomyelin (d18:1,C16:0), ratio versus control (day 14): 0.83* | Sphingomyelin (d18:2,C16:0), ratio versus control (day 14): 0.67* | Stearic acid (C18:0), ratio versus control (day 14): 0.45* | Tricosanoic acid (C23:0), ratio versus control (day 14): 0.72* | beta-Sitosterol, ratio versus control (day 14): 0.3* | dihomo-gamma-Linolenic acid (C20:cis[8,11,14]3), ratio versus control (day 14): 4.4* | erythro-Sphingosine, ratio versus control (day 14): 0.4* | myo-Inositol-2-phosphate, lipid fraction, ratio versus control (day 14): 0.37* | threo-Sphingosine, ratio versus control (day 14): 0.52* | trans-4-Hydroxyproline, ratio versus control (day 14): 0.57* | Lysophosphatidylcholine (C18:1), ratio versus control (day 14 (Table 3a)): 1.92* | Phosphatidylcholine (C16:0,C20:5), ratio versus control (day 14 (Table 3a)): 1.4* | Docosahexaenoic acid (C22:cis[4,7,10,13,16,19]6), ratio versus control (day 14 (Table 3b)): 0.25* | Phosphatidylcholine (C18:0,C22:6), ratio versus control (day 14 (Table 3b)): 0.33* | alpha-Tocopherol, ratio versus control (day 14 (Table 3b)): 0.77* | 3-O-Methylsphingosine (d18:1), ratio versus control (day 28): 0.39* | 5-O-Methylsphingosine (d18:1), ratio versus control (day 28): 0.4* | 14-Methylhexadecanoic acid, ratio versus control (day 28): 0.83* | 16-Methylheptadecanoic acid, ratio versus control (day 28): 0.16* | 17-Methyloctadecanoic acid, ratio versus control (day 28): 0.17* | Arachidonic acid (C20:cis[5,8,11,14]4), ratio versus control (day 28): 0.29* | Arginine, ratio versus control (day 28): 0.62* | Ascorbic acid, ratio versus control (day 28): 1.55* | Behenic acid (C22:0), ratio versus control (day 28): 0.51* | Campesterol, ratio versus control (day 28): 0.21* | Cholesterol, ratio versus control (day 28): 0.43* | Choline plasmalogen (C18,C20:4), ratio versus control (day 28): 0.51* | Choline plasmalogen No 01, ratio versus control (day 28): 0.55* | Choline plasmalogen No 02, ratio versus control (day 28): 0.49* | Choline plasmalogen No 03, ratio versus control (day 28): 0.54* | Coenzyme Q10, ratio versus control (day 28): 0.48* | Cytosine, ratio versus control (day 28): 0.79* | Docosapentaenoic acid (C22:cis[7,10,13,16,19]5), ratio versus control (day 28): 0.31* | Eicosanoic acid (C20:0), ratio versus control (day 28): 0.52* | Glucose, ratio versus control (day 28): 1.32* | Glycine, ratio versus control (day 28): 1.95* | Heptadecanoic acid (C17:0), ratio versus control (day 28): 0.52* | Isopalmitic acid (C16:0), ratio versus control (day 28): 0.47* | Kynurenic acid, ratio versus control (day 28): 2.04* | Lignoceric acid (C24:0), ratio versus control (day 28): 0.44* | Lysophosphatidylcholine (C17:0), ratio versus control (day 28): 0.36* | Lysophosphatidylcholine (C18:0), ratio versus control (day 28): 0.86* | Lysophosphatidylcholine (C18:2), ratio versus control (day 28): 1.33* | Lysophosphatidylethanolamine (C22:0), ratio versus control (day 28): 0.18* | Lysophosphatidylethanolamine (C22:5), ratio versus control (day 28): 1.29* | Mannose, ratio versus control (day 28): 1.23* | Metanephrine, ratio versus control (day 28): 0.55* | Nervonic acid (C24:cis[15]1), ratio versus control (day 28): 0.39* | Normetanephrine, ratio versus control (day 28): 0.78* | Pantothenic acid, ratio versus control (day 28): 3.51* | Phosphatidylcholine (C18:0,C20:3), ratio versus control (day 28): 0.57* | Phosphatidylcholine (C18:0,C20:4), ratio versus control (day 28): 0.75* | Phosphatidylcholine (C18:2,C20:4), ratio versus control (day 28): 0.56* | Phosphatidylcholine No 02, ratio versus control (day 28): 0.47* | Phosphatidylcholine No 04, ratio versus control (day 28): 0.24* | Sphingomyelin (d18:1,C16:0), ratio versus control (day 28): 0.71* | Sphingomyelin (d18:2,C16:0), ratio versus control (day 28): 0.49* | Stearic acid (C18:0), ratio versus control (day 28): 0.39* | Tricosanoic acid (C23:0), ratio versus control (day 28): 0.54* | beta-Sitosterol, ratio versus control (day 28): 0.2* | dihomo-gamma-Linolenic acid (C20:cis[8,11,14]3), ratio versus control (day 28): 3.24* | erythro-Sphingosine, ratio versus control (day 28): 0.43* | myo-Inositol-2-phosphate, lipid fraction, ratio versus control (day 28): 0.38* | threo-Sphingosine, ratio versus control (day 28): 0.55* | trans-4-Hydroxyproline, ratio versus control (day 28): 0.72* | Lysophosphatidylcholine (C18:1), ratio versus control (day 28 (Table 3a)): 1.22* | Phosphatidylcholine (C16:0,C20:5), ratio versus control (day 28 (Table 3a)): 1.21* | Docosahexaenoic acid (C22:cis[4,7,10,13,16,19]6), ratio versus control (day 28 (Table 3b)): 0.14* | Phosphatidylcholine (C18:0,C22:6), ratio versus control (day 28 (Table 3b)): 0.27* | alpha-Tocopherol, ratio versus control (day 28 (Table 3b)): 0.64*
